The values that follow are results of earlier work, collected in patent EP0630652A2, “Contrast media” (NYCOMED SALUTAR, INC., priority 1991, dated 1993).

For series [1] the following is noted: Caussen et al. ROFO 148: 683.
For series [2] the following is noted: Unger et al. Invest. Radiol. 21: 802 (1986).

For the molecule `O=C([O-])CN(CCN(CC(=O)[O-])CC(=O)O)CCN(CC(=O)[O-])CC(=O)O.[Gd+3]` [GdDTPA], in series [1] (GI tract use), the side effect entry is listed as “diarrhoea”. Further, the “contrast improvement in the GI tract” value in series [1] (MRI) is listed as “relatively poor”.

Take `O=C([O-])CN(CCN(CC(=O)[O-])CC(=O)[O-])CCN(CC(=O)[O-])CC(=O)[O-].[Yb+3]` [ytterbium DTPA]: the LD₅₀ in series [2] was 10 mmol/kg.
